Reference: patent US20040131497A1, “PROCESS FOR STERILIZATION OF BIOLOGICAL COMPOSITIONS CONTAING PROTEIN” (priority 2002, published 2004)
Where two headings read alike, the source gives them in different places.

How the values were obtained:
Factor VIII = format: biochemical
PRV=pseudorabies virus = conditions: fibrinogen 5 g/L, UVC 254 nm, eight passes
[1] = cited from earlier work

SMILES | PRV titer reduction (PRV) [Log] | decrease in FVIII activity (Factor VIII) [%] | Log reduction PRV (PRV=pseudorabies virus; stabiliser 0.5 mM) [Log] | Log reduction PRV (PRV=pseudorabies virus; stabiliser 1 mmol/l) [Log] | Log reduction PRV (PRV=pseudorabies virus; stabiliser 2 mmol/l) [Log] | solubility in aqueous solutions [1]
COc1cc(C=O)ccc1O [vanillin] | 5 | 10 | 5 | 5.5 | 5.5 | –
C[C@@H]1O[C@@H](OC[C@H]2O[C@@H](Oc3c(-c4ccc(O)c(O)c4)oc4cc(O)cc(O)c4c3=O)[C@H](O)[C@@H](O)[C@@H]2O)[C@H](O)[C@H](O)[C@H]1O [rutin, reference compound] | – | – | 3 | 3 | 2.5 | poorly soluble in aqueous solutions
